From article PMC10343299, “S-Ethyl-Isothiocitrullin-Based Dipeptides and 1,2,4-Oxadiazole Pseudo-Dipeptides: Solid Phase Synthesis and Evaluation as NO Synthase Inhibitors” (Molecules, 2023)
Like-named read-outs stand apart in the source and are kept apart here. Values belong to the compound of their own block, whether it stands above or below them.

What was measured:
mouse iNOS [1] = target: T1, mouse iNOS (Mus musculus, UniProt P29477); test: NOS inhibition, oxyhemoglobin (hemoglobin capture) test, recombinant iNOS; type: biochemical; settings: recombinant enzyme, 20 µM arginine, triplicate, NI = <50% inhibition at 100 μM
T1 construct: Full-length recombinant rat nNOS, mouse iNOS, bovine eNOS; made in house; host or cells: Escherichia coli
T1 sequence (P29477 1-1144): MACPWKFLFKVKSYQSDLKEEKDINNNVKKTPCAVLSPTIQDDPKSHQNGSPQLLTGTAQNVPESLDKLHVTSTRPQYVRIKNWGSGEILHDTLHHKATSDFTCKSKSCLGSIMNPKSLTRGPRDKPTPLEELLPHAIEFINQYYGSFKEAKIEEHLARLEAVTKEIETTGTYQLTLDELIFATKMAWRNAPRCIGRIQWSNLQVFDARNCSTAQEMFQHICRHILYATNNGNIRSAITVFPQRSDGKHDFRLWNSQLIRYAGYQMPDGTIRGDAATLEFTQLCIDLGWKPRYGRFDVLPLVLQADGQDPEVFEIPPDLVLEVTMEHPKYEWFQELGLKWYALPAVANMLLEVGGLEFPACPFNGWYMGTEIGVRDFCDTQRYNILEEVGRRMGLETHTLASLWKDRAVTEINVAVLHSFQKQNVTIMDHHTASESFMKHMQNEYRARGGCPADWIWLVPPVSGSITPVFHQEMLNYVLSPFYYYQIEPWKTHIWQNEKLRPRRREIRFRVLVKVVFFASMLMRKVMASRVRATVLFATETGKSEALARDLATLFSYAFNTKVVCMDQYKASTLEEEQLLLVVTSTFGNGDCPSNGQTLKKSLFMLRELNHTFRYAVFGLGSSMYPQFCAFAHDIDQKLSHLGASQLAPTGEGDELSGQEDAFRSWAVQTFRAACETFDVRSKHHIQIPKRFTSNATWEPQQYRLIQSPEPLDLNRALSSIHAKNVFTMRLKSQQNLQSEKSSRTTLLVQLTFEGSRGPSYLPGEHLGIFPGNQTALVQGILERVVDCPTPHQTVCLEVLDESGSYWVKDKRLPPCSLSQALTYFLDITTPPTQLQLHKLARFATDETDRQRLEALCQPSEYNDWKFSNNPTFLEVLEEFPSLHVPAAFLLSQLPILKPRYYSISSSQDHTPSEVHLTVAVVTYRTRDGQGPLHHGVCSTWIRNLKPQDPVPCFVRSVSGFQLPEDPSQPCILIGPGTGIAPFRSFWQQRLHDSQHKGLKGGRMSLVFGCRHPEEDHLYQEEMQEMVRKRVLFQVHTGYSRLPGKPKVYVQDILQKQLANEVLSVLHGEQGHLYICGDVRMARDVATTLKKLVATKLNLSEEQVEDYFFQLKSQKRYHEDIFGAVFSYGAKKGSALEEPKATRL
Description: (§1) The inhibitory effects of all compounds against the three recombinant NOSs (rat nNOS, mouse iNOS, and bovine eNOS) were evaluated in 96-well plates using the oxyhemoglobin test. A first screening at 100 and 10 μM was performed, and the IC50 values were measured for compounds showing more than 50% inhibition at 100 μM (Table 1 and Table 2).
(§2) Full-length recombinant rat nNOS, mouse iNOS, bovine eNOS, and the heme domains of rat brain nNOS and mouse iNOS were expressed in Escherichia coli and purified as described previously.
(§3) NOS catalytic activity was measured using the hemoglobin capture assay. The test was performed at 30 °C in 96-well microplates using a final volume of 200 µL. The assay mixture contained 100 µM NADPH, 10 µM BH4, 6 µM HbO2, 100 µM DTT, 5 µM FAD, 5 µM FMN, 10 µM (nNOS and eNOS), or 20 µM (iNOS) arginine, all in a 100 mM Hepes buffer, pH 7.5, and, for constitutive n- and e-NOS, 10 µg/mL calmodulin, and 1 mM CaCl2. The studied compounds were introduced as 2 μL of ×100 concentrated solutions in DMSO, and the control experiments were performed with DMSO or the buffer only. The kinetics of NO production were measured at 401 nm using an Infinite F500 microplate reader (Tecan, Singapore).

bovine eNOS = target: T2, bovine eNOS (Bos taurus, UniProt P29473); test: NOS inhibition, oxyhemoglobin (hemoglobin capture) test, recombinant eNOS; type: biochemical; settings: recombinant enzyme, 10 µM arginine, triplicate, NI = <50% inhibition at 100 μM, read-out: IC50 (μM) eNOS (Bovine)
T2 construct: Full-length recombinant rat nNOS, mouse iNOS, bovine eNOS; made in house; host or cells: Escherichia coli

iNOS in RAW 264.7 cells = target: T3, iNOS in RAW 264.7 cells (Mus musculus, UniProt P29477); test: Inhibition of NO production (nitrite, Griess) in LPS-stimulated cells; type: cell-based, murine; settings: RAW264.7; RAW 264.7, LPS 1 µg/mL, 100 μM compound; read-out: Inhibition of intracellular NO production
T3 construct: In RAW 264.7 cells, iNOS was induced by LPS (1 µg/mL, Sigma-Aldrich) for 24 h; endogenous in cells; host or cells: RAW 264.7 murine macrophages, LPS-induced
Description: We evaluated the ability of selected compounds (dipeptides 7, 8, and 21 and 1,2,4-oxadiazoles 30 and 40) to inhibit iNOS in RAW 264.7 cells (Figure 2), where iNOS was induced by LPS (1 µg/mL). iNOS activity was measured following LPS induction by quantifying nitrite accumulation in the supernatant. […] A similar result was previously reported.
In RAW 264.7 cells, iNOS was induced by LPS (1 µg/mL, Sigma-Aldrich) for 24 h. All studied compounds were incubated with cells during the last 24 h.
(§4) Cellular NO production was measured using the Griess reagent (Sigma-Aldrich), which evaluates the nitrite content in culture media. Cellular toxicity was estimated by the MTT assay (Sigma-Aldrich) in RAW 264.7 cells after the induction (or not) of iNOS by LPS, according to the manufacturer’s recommendations.

rat nNOS = target: T4, rat nNOS (Rattus norvegicus, UniProt P29476); test: NOS inhibition, oxyhemoglobin (hemoglobin capture) test, recombinant nNOS; type: biochemical; settings: recombinant enzyme, 10 µM arginine, triplicate, NI = <50% inhibition at 100 μM
T4 construct: Full-length recombinant rat nNOS, mouse iNOS, bovine eNOS; made in house; host or cells: Escherichia coli
Description: as §1, §2, §3

RAW 264.7 cells [2] = test: Cell viability, MTT assay; type: cell-based, murine
Description: Cell viability was evaluated in the murine macrophage RAW 264.7 cells using an MTT assay for compounds 18, 21, 26, and 30. This experiment was performed without or with LPS (1 µg/mL), which induces iNOS expression (Figure S1). […] Compound 30 only killed 20% of the cells at 500 μM (Figure S1A). In the presence of LPS (1 µg/mL), cell viability was reduced by 30% due to the inhibition by NO of key enzymes involved in cell metabolism (Figure S1B).
The macrophage cell line RAW 264.7 (a gift from Dr. A. Blangy, Montpellier, France) was cultured in Dulbecco’s Modified Eagle’s Medium (DMEM) supplemented with 10% FCS, 100 units/mL penicillin, 100 µg/mL streptomycin, and 2 mM L-glutamine.
as §4

mouse iNOS [3] = test: NOS inhibition, oxyhemoglobin (hemoglobin capture) test, recombinant iNOS; type: biochemical; settings: from IC50 values
Description: as §1, §2, §3

eNOS = target: eNOS; parameters: method as in PMID 14718923; settings: read-out: Experimental Ki eNOS; cited from earlier work
nNOS = test system: nNOS; parameters: method as in PMID 14718923; settings: cited from earlier work
RAW 264.7 cells [4] = test system: RAW 264.7 cells; parameters: method as in PMID 32027778; settings: RAW 264.7, LPS; cited from earlier work
[5] = target: T5, oxygenase domain of iNOS (iNOSoxy) (Mus musculus, UniProt P29477); test: UV-visible difference spectroscopy titration of iNOSoxy; type: binding; settings: UV/Vis difference spectroscopy, ± SD, three experiments; read-out: Apparent equilibrium constant Ks iNOSoxy
T5 construct: the oxygenase domain of nNOS (nNOSoxy) and iNOS (iNOSoxy); made in house; host or cells: Escherichia coli
T5 sequence (P29477 1-498 limits assumed): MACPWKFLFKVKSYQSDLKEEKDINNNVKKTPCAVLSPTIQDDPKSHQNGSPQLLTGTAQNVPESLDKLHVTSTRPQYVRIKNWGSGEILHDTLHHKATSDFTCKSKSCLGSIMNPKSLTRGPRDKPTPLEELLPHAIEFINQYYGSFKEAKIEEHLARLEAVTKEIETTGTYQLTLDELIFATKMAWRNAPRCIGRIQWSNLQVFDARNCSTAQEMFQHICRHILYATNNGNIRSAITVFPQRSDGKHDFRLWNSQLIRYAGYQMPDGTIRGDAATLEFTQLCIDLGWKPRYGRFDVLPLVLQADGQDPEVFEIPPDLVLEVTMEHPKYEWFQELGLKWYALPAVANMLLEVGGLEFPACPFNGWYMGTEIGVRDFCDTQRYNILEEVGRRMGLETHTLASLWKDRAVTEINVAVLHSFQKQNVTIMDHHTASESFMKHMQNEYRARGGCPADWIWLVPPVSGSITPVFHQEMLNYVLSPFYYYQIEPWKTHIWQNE
Excerpt: (§5) We performed UV–visible difference spectroscopy to analyze the interaction mode of some inhibitors with the heme-active site of NOS [54]. We have studied the effects of dipeptide-like compounds 7, 17, 19, 23, and 27 and 1,2,4-oxadiazole 35 on the UV–visible spectra of the oxygenase domain of nNOS (nNOSoxy) and iNOS (iNOSoxy). As expected, when added stepwise to n- and iNOSoxy, all selected compounds elicited different spectra with a trough at ~425 nm and a peak at ~395 nm, similar to the substrate L-arginine. This profile is characteristic of type I interactions, meaning that they are bound in close proximity to the heme prosthetic group and shifted the spin state equilibrium to the pentacoordinated heme–Fe^III state. Double reverse plotting of the differences in absorbance between the peak at ~395 nm and valley at ~425 nm (ΔA395–425 nm) as a function of the concentration of the added compounds allowed calculating apparent binding constants (Ks) (Table 3). The reference inhibitor SEITU [55] tightly bound both NOS isoforms with high affinity but no selectivity. With the exception of the dipeptide-like 27 and the heterocyclic analog 35, which similarly interacted with both proteins, other compounds preferentially bound nNOSoxy over iNOSoxy with apparent affinities close to SEITU for this isoform.
as §2
(§6) This study was performed as previously described.

[6] = target: T6, oxygenase domain of nNOS (nNOSoxy) (Rattus norvegicus, UniProt P29476); test: UV-visible difference spectroscopy titration of nNOSoxy; type: binding; settings: UV/Vis difference spectroscopy, ± SD, three experiments; read-out: Apparent equilibrium constant Ks nNOSoxy
T6 construct: the oxygenase domain of nNOS (nNOSoxy) and iNOS (iNOSoxy); made in house; host or cells: Escherichia coli
Excerpt: as §5, §2, §6

T4 sequence (P29476 whole entry): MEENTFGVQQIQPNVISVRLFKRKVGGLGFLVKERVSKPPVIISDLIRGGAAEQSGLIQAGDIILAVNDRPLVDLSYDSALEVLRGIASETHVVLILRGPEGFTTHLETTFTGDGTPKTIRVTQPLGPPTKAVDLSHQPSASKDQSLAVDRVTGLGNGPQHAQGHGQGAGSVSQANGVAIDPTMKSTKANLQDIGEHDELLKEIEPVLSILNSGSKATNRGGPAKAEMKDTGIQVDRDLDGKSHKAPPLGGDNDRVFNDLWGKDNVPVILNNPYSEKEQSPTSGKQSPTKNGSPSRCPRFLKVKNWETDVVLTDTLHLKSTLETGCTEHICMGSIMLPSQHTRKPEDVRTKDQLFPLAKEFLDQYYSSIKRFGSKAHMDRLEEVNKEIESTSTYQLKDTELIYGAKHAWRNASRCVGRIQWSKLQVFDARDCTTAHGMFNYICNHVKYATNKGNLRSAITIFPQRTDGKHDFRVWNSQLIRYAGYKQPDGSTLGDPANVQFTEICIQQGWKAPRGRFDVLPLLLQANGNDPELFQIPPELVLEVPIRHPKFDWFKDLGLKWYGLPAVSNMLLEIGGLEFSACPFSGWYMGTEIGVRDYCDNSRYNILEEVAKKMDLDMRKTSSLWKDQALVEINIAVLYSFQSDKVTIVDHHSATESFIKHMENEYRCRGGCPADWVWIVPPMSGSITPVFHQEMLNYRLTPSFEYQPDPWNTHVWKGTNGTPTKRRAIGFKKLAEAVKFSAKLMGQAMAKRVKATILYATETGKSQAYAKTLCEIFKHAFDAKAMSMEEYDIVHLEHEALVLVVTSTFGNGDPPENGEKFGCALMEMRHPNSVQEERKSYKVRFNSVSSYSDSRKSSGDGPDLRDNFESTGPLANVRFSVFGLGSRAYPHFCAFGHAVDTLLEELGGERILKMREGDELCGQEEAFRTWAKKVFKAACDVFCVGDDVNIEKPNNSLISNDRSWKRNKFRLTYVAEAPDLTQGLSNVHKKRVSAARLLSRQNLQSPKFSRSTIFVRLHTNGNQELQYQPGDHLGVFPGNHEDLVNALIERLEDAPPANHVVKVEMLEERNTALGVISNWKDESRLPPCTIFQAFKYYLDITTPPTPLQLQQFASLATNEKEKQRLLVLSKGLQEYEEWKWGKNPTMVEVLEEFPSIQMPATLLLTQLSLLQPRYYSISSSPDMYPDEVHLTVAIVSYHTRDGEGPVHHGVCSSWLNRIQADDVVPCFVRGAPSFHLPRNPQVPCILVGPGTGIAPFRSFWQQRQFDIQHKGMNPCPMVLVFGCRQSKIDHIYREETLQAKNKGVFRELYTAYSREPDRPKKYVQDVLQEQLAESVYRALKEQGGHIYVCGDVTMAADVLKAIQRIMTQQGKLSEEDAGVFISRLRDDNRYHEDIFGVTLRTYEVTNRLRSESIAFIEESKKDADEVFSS
T2 sequence (P29473 whole entry): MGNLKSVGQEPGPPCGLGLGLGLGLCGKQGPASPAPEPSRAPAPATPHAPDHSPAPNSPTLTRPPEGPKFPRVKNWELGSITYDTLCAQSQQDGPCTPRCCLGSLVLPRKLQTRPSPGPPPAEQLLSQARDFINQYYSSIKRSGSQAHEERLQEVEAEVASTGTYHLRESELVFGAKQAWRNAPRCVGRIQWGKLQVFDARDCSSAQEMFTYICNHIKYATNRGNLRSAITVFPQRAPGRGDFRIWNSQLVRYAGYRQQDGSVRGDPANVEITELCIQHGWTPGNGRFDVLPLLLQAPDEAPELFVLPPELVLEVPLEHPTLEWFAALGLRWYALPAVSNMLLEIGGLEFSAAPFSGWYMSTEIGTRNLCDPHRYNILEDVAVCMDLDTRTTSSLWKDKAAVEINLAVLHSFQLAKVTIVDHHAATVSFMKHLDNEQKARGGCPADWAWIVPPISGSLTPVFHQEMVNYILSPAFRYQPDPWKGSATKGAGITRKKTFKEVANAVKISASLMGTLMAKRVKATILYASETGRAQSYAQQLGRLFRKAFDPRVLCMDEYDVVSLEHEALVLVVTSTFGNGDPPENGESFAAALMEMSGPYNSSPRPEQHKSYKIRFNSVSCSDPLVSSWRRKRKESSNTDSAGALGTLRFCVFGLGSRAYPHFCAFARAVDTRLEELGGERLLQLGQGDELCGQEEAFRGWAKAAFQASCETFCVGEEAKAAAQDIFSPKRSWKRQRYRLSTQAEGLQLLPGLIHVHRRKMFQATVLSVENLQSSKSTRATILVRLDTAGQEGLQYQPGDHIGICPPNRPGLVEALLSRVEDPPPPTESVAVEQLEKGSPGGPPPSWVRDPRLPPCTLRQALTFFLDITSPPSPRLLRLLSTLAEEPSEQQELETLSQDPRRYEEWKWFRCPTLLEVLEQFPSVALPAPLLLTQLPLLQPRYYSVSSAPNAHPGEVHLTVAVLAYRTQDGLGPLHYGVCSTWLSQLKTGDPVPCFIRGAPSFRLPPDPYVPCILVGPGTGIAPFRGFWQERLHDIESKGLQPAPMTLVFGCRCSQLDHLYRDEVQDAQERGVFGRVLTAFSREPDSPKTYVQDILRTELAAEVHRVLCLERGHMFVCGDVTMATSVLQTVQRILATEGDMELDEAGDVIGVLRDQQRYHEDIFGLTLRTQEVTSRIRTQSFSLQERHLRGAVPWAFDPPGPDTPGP
T6 sequence (P29476 1-720 limits assumed): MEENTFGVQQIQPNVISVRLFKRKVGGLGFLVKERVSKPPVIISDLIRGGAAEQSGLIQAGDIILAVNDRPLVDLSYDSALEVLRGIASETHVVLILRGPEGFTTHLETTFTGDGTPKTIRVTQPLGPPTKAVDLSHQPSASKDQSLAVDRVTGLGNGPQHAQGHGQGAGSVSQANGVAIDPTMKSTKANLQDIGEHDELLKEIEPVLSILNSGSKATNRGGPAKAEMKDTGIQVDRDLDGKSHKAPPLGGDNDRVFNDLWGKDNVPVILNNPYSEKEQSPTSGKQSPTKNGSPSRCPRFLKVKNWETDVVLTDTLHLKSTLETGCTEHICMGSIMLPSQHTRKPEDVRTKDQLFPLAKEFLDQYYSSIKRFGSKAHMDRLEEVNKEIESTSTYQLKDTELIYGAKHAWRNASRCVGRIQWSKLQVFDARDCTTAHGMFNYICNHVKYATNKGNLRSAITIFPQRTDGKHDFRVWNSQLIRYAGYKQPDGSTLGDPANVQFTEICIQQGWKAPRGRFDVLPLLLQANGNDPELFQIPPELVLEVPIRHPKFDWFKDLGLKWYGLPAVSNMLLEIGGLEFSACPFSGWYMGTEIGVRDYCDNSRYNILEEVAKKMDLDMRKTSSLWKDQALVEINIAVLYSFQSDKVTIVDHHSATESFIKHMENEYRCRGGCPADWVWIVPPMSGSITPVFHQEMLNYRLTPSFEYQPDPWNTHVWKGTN

- IC50 (mouse iNOS [1]; dipeptide-like series): 45.5 µM
- inhibition at 100 µM (bovine eNOS; dipeptide-like series): < 50%
- inhibition at 100 µM (iNOS in RAW 264.7 cells): 80%
- IC50 (rat nNOS; dipeptide-like series): 1 µM
SMILES: CCSC(=N)NCCC[C@H](N)C(=O)N[C@H]1CCCN(Cc2cccc(Br)c2)C1 [Compound 21]
- Reversal of LPS-induced reduction of cell viability (RAW 264.7 cells [2]; RAW 264.7, LPS 1 µg/mL): none partially reversed the LPS effect
- Effect on cell viability (MTT) (RAW 264.7 cells [2]; RAW 264.7, absence of LPS, up to 100 μM): did not modify cell viability

- IC50 (mouse iNOS [1]; 1,2,4-oxadiazole series): 2 µM
- inhibition at 100 µM (bovine eNOS; 1,2,4-oxadiazole series): < 50%
- IC50 (rat nNOS; 1,2,4-oxadiazole series): 61 µM
SMILES: CCSC(=N)NCCC[C@H](N)c1nc(CCN(Cc2ccccc2[N+](=O)[O-])Cc2ccccc2[N+](=O)[O-])no1 [Compound 40]
- Selectivity for iNOS toward eNOS (mouse iNOS [3]): > 50 fold
- Selectivity for iNOS toward nNOS (mouse iNOS [3]): 30 fold

SMILES: N=C(NCCC[C@H](N)C(=O)N1C[C@H](N)C[C@H]1C(N)=O)N[N+](=O)[O-] [DP9, L-Nω-nitroarginine-(4R)-amino-L-prolinamide]
- Ki (eNOS): 110 µM
- Selectivity in favor of nNOS over eNOS (nNOS): 1000 fold
- Ki (nNOS; read-out: Experimental Ki nNOS): 0.1 µM

SMILES: CC(=N)NCCCC[C@H](N)C(=O)O [L-NIL]
- Reversal of LPS-induced reduction of cell viability (RAW 264.7 cells [4]): partially reversed the LPS effect

SMILES: CCSC(=N)N [SEITU, reference compound]
- Reversal of LPS-induced reduction of cell viability (RAW 264.7 cells [4]): partially reversed the LPS effect
- Kd [5]: 1.7 ± 0.1 µM
- Kd [6]: 6.4 ± 1.5 µM
